Measured values from the supplement of paper PMC10307832.

What was measured:
Experiment in all cases: relative viability (nuclei count vs DMSO), 5 days (fraction); higher = more cells survive
Adavosertib + Foretinib = compound: C=CCn1c(=O)c2cnc(Nc3ccc(N4CCN(C)CC4)cc3)nc2n1-c1cccc(C(C)(C)O)n1 [Adavosertib] + COc1cc2c(Oc3ccc(NC(=O)C4(C(=O)Nc5ccc(F)cc5)CC4)cc3F)ccnc2cc1OCCCN1CCOCC1 [Foretinib] (partner 0.25 µM)
Outline: (§1)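 Lung cancer cell lines were pin-tool dosed in 1536-well plates on the day after seeding, with either a lone drug or a fixed anchor-drug dose plus five library-drug doses (not always all listed) in √10 steps. Nuclei were counted on 4× images after 5 days. Relative viability is the ratio of treated-well to vehicle-well nuclei counts, with each value a median of duplicate plates.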

Adavosertib + Decitabine = compound: C=CCn1c(=O)c2cnc(Nc3ccc(N4CCN(C)CC4)cc3)nc2n1-c1cccc(C(C)(C)O)n1 [Adavosertib] + Nc1ncn([C@H]2C[C@H](O)[C@@H](CO)O2)c(=O)n1 [Decitabine] (partner 2 µM)
Outline: as §1

Adavosertib + Vorinostat = compound: C=CCn1c(=O)c2cnc(Nc3ccc(N4CCN(C)CC4)cc3)nc2n1-c1cccc(C(C)(C)O)n1 [Adavosertib] + O=C(CCCCCCC(=O)Nc1ccccc1)NO [Vorinostat] (partner 1 µM)
Outline: as §1

Nelarabine + Navitoclax = compound: COc1nc(N)nc2c1ncn2[C@@H]1O[C@H](CO)[C@@H](O)[C@@H]1O [Nelarabine] + CC1(C)CCC(c2ccc(Cl)cc2)=C(CN2CCN(c3ccc(C(=O)NS(=O)(=O)c4ccc(N[C@H](CCN5CCOCC5)CSc5ccccc5)c(S(=O)(=O)C(F)(F)F)c4)cc3)CC2)C1 [Navitoclax] (partner 0.5 µM)
Outline: as §1

Cell Line	relative viability (Adavosertib + Foretinib; first compound 0.01 µM)	relative viability (Adavosertib + Foretinib; first compound 0.03162 µM)	relative viability (Adavosertib + Foretinib; first compound 0.1 µM)	relative viability (Adavosertib + Foretinib; first compound 0.3162 µM)	relative viability (Adavosertib + Decitabine; first compound 0.01 µM)	relative viability (Adavosertib + Decitabine; first compound 0.03162 µM)	relative viability (Adavosertib + Decitabine; first compound 0.1 µM)	relative viability (Adavosertib + Decitabine; first compound 0.3162 µM)	relative viability (Adavosertib + Vorinostat; first compound 0.01 µM)	relative viability (Adavosertib + Vorinostat; first compound 0.03162 µM)	relative viability (Adavosertib + Vorinostat; first compound 0.1 µM)	relative viability (Adavosertib + Vorinostat; first compound 0.3162 µM)	relative viability (Nelarabine + Navitoclax; first compound 0.01 µM)	relative viability (Nelarabine + Navitoclax; first compound 0.03162 µM)	relative viability (Nelarabine + Navitoclax; first compound 0.1 µM)	relative viability (Nelarabine + Navitoclax; first compound 0.3162 µM)	relative viability (Nelarabine + Navitoclax; first compound 1 µM)
HOP-62	1.09	1.23	1.15	1.34	0.27	0.239	0.229	0.223	0.689	0.653	0.733	0.62	1.25	1	1.06	1.08	1.11
IA-LM	0.945	1.18	1.43	1.37						0.904	1.07	1.12	1	0.626	0.774	0.754	0.807
LC-2-ad	0.823	0.995	0.958	0.889	0.696	0.733	0.87	0.889	0.708	0.661	0.736	0.704	0.619	0.384	0.519	0.434	0.452
LCLC-97TM1	0.847	0.906	0.994	0.881	0.262	0.264	0.246	0.221	0.809	0.71	0.77	0.573	0.428	0.202	0.458	0.478	0.351
LCLC-103H	0.922	0.794	0.871	0.517	0.71	0.722	0.73	0.721	0.834	0.78	0.755	0.739					
LK-2	1.16	1.21	1.64	1.14	0.254	0.346	0.349	0.412	0.265	0.362	0.351	0.306	0.975		1.09	0.935	0.729
LOU-NH91	0.875	0.945	0.943	0.88	0.819	0.821	0.798	0.852	0.882	0.99	0.908	0.896	0.786	0.588	0.616	0.632	0.69
LU99A	0.86	0.779	0.771	0.579	0.942	0.912	0.846	0.69	0.485	0.486	0.462	0.307	0.918	0.821	0.845	0.765	0.758
LXF-289	1.01	0.973	0.973	1.03	0.362	0.411	0.399	0.358	0.795	0.791	0.768	0.735	1.12	0.882	0.98	1	0.908
NCI-H23	1.04	0.891	0.75	0.261	0.299	0.31	0.255	0.246	0.627	0.469	0.401	0.185	0.804	0.821	0.783	0.854	0.763
